Assay results as given in US6482815B1 (priority 1999, dated 2002).
Like-named read-outs stand apart in the source and are kept apart here.

What was measured:
NALM-6 [1] = assay: cells; type: cell-based; settings: Homo sapiens, NALM-6, read-out: NALM-6 IC50
MOLT-3 [2] = assay: cells; type: cell-based; settings: Homo sapiens, MOLT-3, read-out: MOLT-3 IC50
ALL1 = assay: cells; type: cell-based; settings: Homo sapiens, read-out: ALL1 IC50
BT20 [3] = assay: cells; settings: Homo sapiens, BT-20, read-out: BT20 IC50
RS4;11 = assay: cells; type: cell-based; settings: Homo sapiens, RS4-11, read-out: RS4;11 IC50
NALM-6 [4] = assay: Anti-proliferative activity (colony counts), NALM-6; type: cell-based, human
Text: (§1) The dose-responsive anti-proliferative activity of various organic arsenic acid substituted compounds against leukemic cell lines (NALM-6 and MOLT-3) is shown below in Table 3. FIGS. 3A-3F show dose response curves in ALL1, NALM-6, and MOLT-3 cells.

BT20 [5] = test system: BT20
MOLT-3 [6] = assay: Anti-proliferative activity (colony counts), MOLT-3; type: cell-based, human
Text: as §1

primary leukemic cells = assay: MTT cytotoxicity against primary leukemic cells; settings: cells from 5 leukemia patients, FIGS. 4A-4E
[7] = test system: leukemic cell lines (NALM-6, MOLT-3, ALL1, RS4;11); assay: cells; settings: Homo sapiens, read-out: IC50 values in leukemic cell lines
NALM-6 cells = assay: MTT cytotoxicity over 1-4 days versus arsenic trioxide, NALM-6; settings: MTT, doses 0.07 μM to 5 μM
[8] = NALM-6, concentration 0.1 (mM as printed)
[9] = NALM-6, concentration 1 (mM as printed)
[10] = NALM-6, concentration 10 (mM as printed)
[11] = NALM-6, concentration 100 (mM as printed)
[12] = MOLT-3, concentration 0.1 (mM as printed)
[13] = MOLT-3, concentration 1 (mM as printed)
[14] = MOLT-3, concentration 10 (mM as printed)
[15] = MOLT-3, concentration 100 (mM as printed)

Compound	IC50 (NALM-6 [1]) [µM]	IC50 (MOLT-3 [2]) [µM]	melting point [°C]	IC50 (ALL1) [µM]	IC50 (BT20 [3]) [µM]	IC50 (RS4;11) [µM]	% Inhibition (NALM-6 [4]; [8]) [%]	Mean No. of Colonies/10^6 Cells (NALM-6 [4]; [8])	% Inhibition (NALM-6 [4]; [9]) [%]	Mean No. of Colonies/10^6 Cells (NALM-6 [4]; [9])	% Inhibition (NALM-6 [4]; [10]) [%]	Mean No. of Colonies/10^6 Cells (NALM-6 [4]; [10]) [Colonies/10^6 Cells]	% Inhibition (NALM-6 [4]; [11]) [%]	Mean No. of Colonies/10^6 Cells (NALM-6 [4]; [11]) [Colonies/10^6 Cells]	Mean No. of Colonies/10^6 Cells (MOLT-3 [6]; [12])	% Inhibition (MOLT-3 [6]; [13]) [%]	Mean No. of Colonies/10^6 Cells (MOLT-3 [6]; [13])	% Inhibition (MOLT-3 [6]; [14]) [%]	Mean No. of Colonies/10^6 Cells (MOLT-3 [6]; [14]) [Colonies/10^6 Cells]	% Inhibition (MOLT-3 [6]; [15]) [%]	also measured
COc1cc2ncnc(Nc3ccccc3[As](=O)(O)O)c2cc1OC [WHI-P378, 4-(2′-phenylarsenic acid)amino-6,7-dimethoxyquinazoline]	46.6	67.3	> 300	128	> 250	115															
CSc1nccc(Nc2ccc(N=Nc3ccc([As](=O)(O)O)cc3)cc2)n1 [WHI-P370, 2-Methylthio-4-[(4′-aminophenylazo)-phenylarsenic acid]pyrimidine]	5.98	2.9	240 to 242	1.9	67.8	4.8	30.9	2194(2860, 2968) Colonies/10^6 Cells	100	0 Colonies/10^6 Cells	100	0	100	0	992(896, 1088) Colonies/10^6 Cells	100	0 Colonies/10^6 Cells	100	0	100	cytotoxic against the breast cancer cell line BT20 (in words) (BT20 [5]): cytotoxic; % Inhibition (MOLT-3 [6]; [12]): 6.1%; Mean No. of Colonies/10^6 Cells (MOLT-3 [6]; [15]): 0 Colonies/10^6 Cells; cytotoxic activity against primary leukemic cells (in words) (primary leukemic cells): susceptible to the cytotoxic effects
CSc1nccc(Nc2ccc([As](=O)(O)O)cc2)n1 [WHI-P380, 2-Methylthio-4-(4′-phenylarsenic acid)-aminopyrimidine]	1.7	14.2	> 300	6.2	239	10.2	66.9	400(116, 684) Colonies/10^6 Cells	99.8	2(3, 1) Colonies/10^6 Cells	100	0	100	0	678(624, 732) Colonies/10^6 Cells	69.7	436(272, 600) Colonies/10^6 Cells	100	0	100	% Inhibition (MOLT-3 [6]; [12]): 52.8%; Mean No. of Colonies/10^6 Cells (MOLT-3 [6]; [15]): 0 Colonies/10^6 Cells; IC50 [7]: 1.7 to 14.2 µM; cytotoxic activity against primary leukemic cells (in words) (primary leukemic cells): susceptible to the cytotoxic effects
Arsenic trioxide [reference compound]																					IC50 (NALM-6 cells; read-out: Cytotoxicity against NALM-6 cells IC50, Day 1, 1 day of treatment): 3.8 µM; IC50 (NALM-6 cells; read-out: Cytotoxicity against NALM-6 cells IC50, Day 2, 2 days of treatment): 3.2 µM; IC50 (NALM-6 cells; read-out: Cytotoxicity against NALM-6 cells IC50, Day 3, 3 days of treatment): 2 µM; IC50 (NALM-6 cells; read-out: Cytotoxicity against NALM-6 cells IC50, Day 4, 4 days of treatment): 1.2 µM
COc1cc2ncnc(Nc3ccc([As](=O)(O)O)cc3)c2cc1OC			> 300																		
Nc1nc(N)nc(Nc2ccc(N=Nc3ccc([As](=O)(O)O)cc3)cc2)n1 [WHI-P374, 2,6-Diamino-4[(4′-aminophenylazo)-phenylarsenic acid]-1,3,5-triazine]	50.1	104	> 300	55.8	13.9	53.6															cytotoxic against the breast cancer cell line BT20 (in words) (BT20 [5]): cytotoxic
O=[As](O)(O)c1ccc(N=Nc2ccc(Nc3ncnc4[nH]cnc34)cc2)cc1 [WHI-P371, 6-[(4′-Aminophenylazo)-phenylarsenic acid]-purine]	15.2	21.6	> 300	24.5	> 250	16.2	8.8	3846(3696, 3996) Colonies/10^6 Cells	76.4	994(616, 1372) Colonies/10^6 Cells	100	0	100	0	1098(1004, 1192) Colonies/10^6 Cells	27.9	761(678, 844) Colonies/10^6 Cells	100	0	100	Mean No. of Colonies/10^6 Cells (MOLT-3 [6]; [15]): 0 Colonies/10^6 Cells; cytotoxic activity against primary leukemic cells (in words) (primary leukemic cells): susceptible to the cytotoxic effects
COc1cc2ncnc(Nc3ccc(N=Nc4ccc([As](=O)(O)O)cc4)cc3)c2cc1OC [WHI-P273, 4-[(6′,7′-Dimethoxyquinazoline-4′)-aminophenylazo]phenyl arsenic acid]	7.3	12.1		8.2	> 250	7.7	13.7	3638(3260, 4016) Colonies/10^6 Cells	98.5	61(24, 96) Colonies/10^6 Cells	100	0	100	0	1230(968, 1492) Colonies/10^6 Cells	75	264(216, 312) Colonies/10^6 Cells	100	0	100	Mean No. of Colonies/10^6 Cells (MOLT-3 [6]; [15]): 0 Colonies/10^6 Cells; cytotoxic activity against primary leukemic cells (in words) (primary leukemic cells): susceptible to the cytotoxic effects
